Test results published in ChEMBL document CHEMBL1138130, “Synthesis and antibacterial activity of 3-O-acyl-6-O-carbamoyl erythromycin A derivatives” (2006).
≈ marks a conversion by molar mass, not a printed value.

What was measured:
Type in all cases: functional
[1] = tested on: Haemophilus influenzae; assay: Antibacterial activity against Haemophilus influenzae OC4882
[2] = tested on: Streptococcus pneumoniae; assay: Antibacterial activity against erm(B) ribosomal methylase gene containing Streptococcus pneumoniae OC4051
[3] = tested on: Streptococcus pneumoniae; assay: Antibacterial activity against Streptococcus pneumoniae OC9132
[4] = tested on: Streptococcus pneumoniae; assay: Antibacterial activity against Mef(A) efflux pump containing Streptococcus pneumoniae OC4438
[5] = tested on: Staphylococcus aureus; assay: Antibacterial activity against Staphylococcus aureus OC4172

SMILES | MIC [1] [µg/mL] | MIC [2] [µg/mL] | MIC [3] [µg/mL] | MIC [4] [µg/mL] | MIC [5] [µg/mL]
CC[C@H]1OC(=O)[C@H](C)[C@@H](OC(=O)CC2CC2)[C@H](C)[C@@H](O[C@@H]2O[C@H](C)C[C@H](N(C)C)[C@H]2O)[C@](C)(OC(=O)NC/C=C/c2ccc(-c3ncccn3)cc2)C[C@@H](C)C(=O)[C@H](C)[C@H]2NC(=O)O[C@@]21C | 16 (≈ 17.4 µM) | 0.12 (≈ 0.13 µM) | 0.06 (≈ 0.0652 µM) | 0.12 (≈ 0.13 µM) | 1 (≈ 1.09 µM)
CC[C@H]1OC(=O)[C@H](C)[C@@H](OC(=O)N2CCCC2)[C@H](C)[C@@H](O[C@@H]2O[C@H](C)C[C@H](N(C)C)[C@H]2O)[C@](C)(OC(=O)NC/C=C/c2ccc(-c3ncccn3)cc2)C[C@@H](C)C(=O)[C@H](C)[C@H]2NC(=O)O[C@@]21C | 16 (≈ 17.1 µM) | 0.25 (≈ 0.267 µM) | 0.06 (≈ 0.0642 µM) | 0.12 (≈ 0.128 µM) | 0.5 (≈ 0.535 µM)
CC[C@H]1OC(=O)[C@H](C)[C@@H](OC(=O)N(CC)Cc2cccnc2)[C@H](C)[C@@H](O[C@@H]2O[C@H](C)C[C@H](N(C)C)[C@H]2O)[C@](C)(OC(=O)NC/C=C/c2ccc(-c3ncccn3)cc2)C[C@@H](C)C(=O)[C@H](C)[C@H]2NC(=O)O[C@@]21C | 16 (≈ 16 µM) | 0.25 (≈ 0.25 µM) | 0.06 (≈ 0.06 µM) | 0.12 (≈ 0.12 µM) | 0.5 (≈ 0.5 µM)
CC[C@H]1OC(=O)[C@H](C)[C@@H](OC(=O)Nc2ccc(F)cc2)[C@H](C)[C@@H](O[C@@H]2O[C@H](C)C[C@H](N(C)C)[C@H]2O)[C@](C)(OC(=O)NC/C=C/c2ccc(-c3ncccn3)cc2)C[C@@H](C)C(=O)[C@H](C)[C@H]2NC(=O)O[C@@]21C | 16 (≈ 16.4 µM) | 2 (≈ 2.05 µM) | 0.12 (≈ 0.123 µM) | 0.25 (≈ 0.256 µM) | 1 (≈ 1.03 µM)
CC[C@H]1OC(=O)[C@H](C)[C@@H](OC(C)=O)[C@H](C)[C@@H](O[C@@H]2O[C@H](C)C[C@H](N(C)C)[C@H]2O)[C@](C)(OC(=O)NC/C=C/c2ccc(-c3ncccn3)cc2)C[C@@H](C)C(=O)[C@H](C)[C@H]2NC(=O)O[C@@]21C | 16 (≈ 18.2 µM) | 0.5 (≈ 0.568 µM) | 0.03 (≈ 0.0341 µM) | 0.12 (≈ 0.136 µM) | 1 (≈ 1.14 µM)

The next compounds have a lower MIC [1] than those just listed; values first:

MIC [1] [µg/mL] | MIC [2] [µg/mL] | MIC [3] [µg/mL] | MIC [4] [µg/mL] | MIC [5] [µg/mL] | SMILES
4 (≈ 4.4 µM) | 0.12 (≈ 0.132 µM) | 0.06 (≈ 0.0659 µM) | 0.06 (≈ 0.0659 µM) | 0.5 (≈ 0.549 µM) | CC[C@H]1OC(=O)[C@H](C)[C@@H](OC(=O)N(CC)CC)[C@H](C)[C@@H](O[C@@H]2O[C@H](C)C[C@H](N(C)C)[C@H]2O)[C@](C)(OC(=O)NC/C=C/c2cnc3ccccc3c2)C[C@@H](C)C(=O)[C@H](C)[C@H]2NC(=O)O[C@@]21C
4 (≈ 4.27 µM) | 0.25 (≈ 0.267 µM) | 0.06 (≈ 0.064 µM) | 0.12 (≈ 0.128 µM) | 0.5 (≈ 0.534 µM) | CC[C@H]1OC(=O)[C@H](C)[C@@H](OC(=O)N(CC)CC)[C@H](C)[C@@H](O[C@@H]2O[C@H](C)C[C@H](N(C)C)[C@H]2O)[C@](C)(OC(=O)NC/C=C/c2ccc(-c3cccnn3)cc2)C[C@@H](C)C(=O)[C@H](C)[C@H]2NC(=O)O[C@@]21C
4 (≈ 4.32 µM) | 0.5 (≈ 0.54 µM) | 0.12 (≈ 0.13 µM) | 0.12 (≈ 0.13 µM) | 1 (≈ 1.08 µM) | CC[C@H]1OC(=O)[C@H](C)[C@@H](OC(=O)N(CC)CC)[C@H](C)[C@@H](O[C@@H]2O[C@H](C)C[C@H](N(C)C)[C@H]2O)[C@](C)(OC(=O)NC/C=C/c2ccc(-n3cccn3)cc2)C[C@@H](C)C(=O)[C@H](C)[C@H]2NC(=O)O[C@@]21C
4 (≈ 4.54 µM) | 0.06 (≈ 0.0681 µM) | 0.03 (≈ 0.034 µM) | 0.03 (≈ 0.034 µM) | 0.25 (≈ 0.284 µM) | CC[C@H]1OC(=O)[C@H](C)[C@@H](OC(=O)C(C)C)[C@H](C)[C@@H](O[C@@H]2O[C@H](C)C[C@H](N(C)C)[C@H]2O)[C@](C)(OC(=O)NC/C=C/c2cnc3ccccc3c2)C[C@@H](C)C(=O)[C@H](C)[C@H]2NC(=O)O[C@@]21C
4 (≈ 4.18 µM) | 0.12 (≈ 0.125 µM) | 0.03 (≈ 0.0313 µM) | 0.12 (≈ 0.125 µM) | 0.25 (≈ 0.261 µM) | CC[C@H]1OC(=O)[C@H](C)[C@@H](OC(=O)Cc2ccccn2)[C@H](C)[C@@H](O[C@@H]2O[C@H](C)C[C@H](N(C)C)[C@H]2O)[C@](C)(OC(=O)NC/C=C/c2ccc(-c3ncccn3)cc2)C[C@@H](C)C(=O)[C@H](C)[C@H]2NC(=O)O[C@@]21C
4 (≈ 4.18 µM) | 0.12 (≈ 0.125 µM) | 0.03 (≈ 0.0313 µM) | 0.06 (≈ 0.0627 µM) | 0.12 (≈ 0.125 µM) | CC[C@H]1OC(=O)[C@H](C)[C@@H](OC(=O)Cc2cccnc2)[C@H](C)[C@@H](O[C@@H]2O[C@H](C)C[C@H](N(C)C)[C@H]2O)[C@](C)(OC(=O)NC/C=C/c2ccc(-c3ncccn3)cc2)C[C@@H](C)C(=O)[C@H](C)[C@H]2NC(=O)O[C@@]21C
2 (≈ 2.2 µM) | 0.12 (≈ 0.132 µM) | 0.06 (≈ 0.0661 µM) | 0.06 (≈ 0.0661 µM) | 0.5 (≈ 0.551 µM) | CC[C@H]1OC(=O)[C@H](C)[C@@H](OC(=O)C(C)C)[C@H](C)[C@@H](O[C@@H]2O[C@H](C)C[C@H](N(C)C)[C@H]2O)[C@](C)(OC(=O)NC/C=C/c2ccc(-c3cccnn3)cc2)C[C@@H](C)C(=O)[C@H](C)[C@H]2NC(=O)O[C@@]21C
